Data on 47 compounds can be found in ChEMBL document CHEMBL2321705, “Novel diaryl ureas with efficacy in a mouse model of malaria” (Bioorg Med Chem Lett, 2013).

For assay [1], the system named is Plasmodium falciparum. As to the kind of experiment: Antimalarial activity against Plasmodium falciparum Dd2 assessed as inhibition of parasite growth. Type of assay: functional, organism-based.
Assay [2] relates to Plasmodium falciparum. Nature of the assay: Antimalarial activity against Plasmodium falciparum 3D7 assessed as inhibition of parasite growth. The class given is functional, organism-based.
Assay [3] relates to Plasmodium berghei. Nature of the assay: Antimalarial activity against Plasmodium berghei infected CD-1 mouse assessed as survival beyond 8 days at 256 mg/kg, sc bid. Also noted: dose 256 mg/kg. Type of assay: functional, organism-based.
Assay [4] has as its system Plasmodium falciparum. Nature of the assay: Antimalarial activity against Plasmodium falciparum D6 assessed as inhibition of parasite growth. The class given is functional, organism-based.
Assay [5] has as its system Plasmodium falciparum. As to the kind of experiment: Antimalarial activity against Plasmodium falciparum W2 assessed as inhibition of parasite growth. The class given is functional, organism-based.
A short description of assay [6]: Inhibition of Plasmodium falciparum cysteine protease plasmepsin 2.
Assay [7] relates to Plasmodium falciparum. Nature of the assay: Antimalarial activity against Plasmodium falciparum delta pfpm4 assessed as growth inhibition. Type of assay: functional, organism-based.
The test system of assay [8] is Plasmodium falciparum. Nature of the assay: Antimalarial activity against Plasmodium falciparum delta pfpm2 assessed as growth inhibition. Type of assay: functional, organism-based.
The subject of assay [9] is Plasmodium falciparum. Nature of the assay: Antimalarial activity against Plasmodium falciparum delta pfpm3 assessed as growth inhibition. Type of assay: functional, organism-based.
In assay [10] the test system is Plasmodium falciparum. As to the kind of experiment: Antimalarial activity against chloroquine-resistant Plasmodium falciparum Dd2 assessed as growth inhibition. Type of assay: functional, organism-based.
The test system of assay [11] is Plasmodium falciparum. Nature of the assay: Antimalarial activity against Plasmodium falciparum delta pfpm1 assessed as growth inhibition. Type of assay: functional, organism-based.
Assay [12] relates to Plasmodium berghei. Nature of the assay: Antimalarial activity against Plasmodium berghei infected CD-1 mouse assessed as survival beyond 8 days at 128 mg/kg, sc bid. Type of assay: functional, organism-based. The arrangement: dose 128 mg/kg.
Assay [13] relates to Plasmodium berghei. As to the kind of experiment: Antimalarial activity against Plasmodium berghei infected CD-1 mouse assessed as survival at 128 mg/kg, sc bid measured on day 31. Type of assay: functional, organism-based. Also noted: dose 128 mg/kg.

The source made the active and inactive calls. The rule behind the calls is not given here.

As a reminder, the EC50 is the concentration that produces a half-maximal response. For `O=C(Nc1ccc(Oc2ccc(Cl)cc2Cl)c(C(F)(F)F)c1)Nc1ccccc1Cc1ccccc1`, the values for the EC50 in assay [1] and in [2] were 0.6 µg/mL and 0.5 µg/mL, respectively.

In the case of `O=C(Nc1cccc(Oc2ccccc2)c1)Nc1cc(C(F)(F)F)ccc1Oc1ccc(Cl)cc1Cl`, the EC50 worked out at 0.2 µg/mL in assay [1] and 0.3 µg/mL in assay [2].

For the compound `O=C(Nc1cccc(S(=O)(=O)C(F)(F)F)c1)Nc1cc(C(F)(F)F)ccc1Oc1ccc(Cl)cc1Cl`, the EC50 in assay [1] and in assay [2] was 0.077 µg/mL each time.

As to `NC(=O)c1cc(Cl)ccc1Oc1ccc(Cl)cc1Cl`, the EC50 in assay [1] was 60000 nM; in assay [2], 73000 nM.

As for `O=C(Nc1ccc(Oc2ccc(Cl)cc2O)c(Cl)c1)N1CCOCC1`, the EC50 in assay [1] and in [2] was 100000 nM in each case.

Take `O=C(Nc1ccc(Cl)c(Cl)c1)Nc1cc(C(F)(F)F)ccc1Oc1ccc(Cl)cc1Cl`: the EC50 in [1] and in assay [2] was 200 nM in each case.

For `N#Cc1ccc(NC(=O)Nc2cc(C(F)(F)F)ccc2Oc2ccc(Cl)cc2Cl)cc1`, the figures for the EC50 in assay [1] and in [2] were 0.11 µg/mL and 0.14 µg/mL, respectively.

On to `CN(C(=O)N(C)c1ccc(Cl)c(C(F)(F)F)c1)c1cc(Oc2ccc(Cl)cc2Cl)cc(C(F)(F)F)c1`, for which the EC50 is 2.4 µg/mL in assay [1] and 1.8 µg/mL in [2].

For the compound `O=C(Nc1ccccc1)Nc1cc(Cl)ccc1Oc1ccc(Cl)cc1Cl`, the EC50 in assay [1] turned out to be 1200 nM; in assay [2] it was 730 nM.

Turning to `CC(=O)Nc1cc(Cl)ccc1Oc1ccc(Cl)cc1Cl`, the results for the EC50 in [1] and in [2] were 48000 nM and 33000 nM, respectively.

As for `CC(C)(N)c1cc(Cl)ccc1Oc1ccc(Cl)cc1Cl`, the EC50 was determined as 1800 nM in assay [1] and 7200 nM in assay [2].

Take `O=S(=O)(Nc1cc(Cl)ccc1Oc1ccc(Cl)cc1Cl)c1ccccc1`: the values for the EC50 in [1] and in assay [2] were 5100 nM and 4700 nM, respectively.

As for `O=C(Nc1ccc([N+](=O)[O-])c(C(F)(F)F)c1)Nc1cc(C(F)(F)F)ccc1Oc1ccc(Cl)cc1Cl`, the EC50 in [1] and in [2] was 72 nM each time.

Take `O=C(Nc1cc(C(F)(F)F)cc(C(F)(F)F)c1)Nc1cc(C(F)(F)F)ccc1Oc1ccc(Cl)cc1Cl`: the EC50 in [1] is 0.044 µg/mL; in assay [2] it was 0.037 µg/mL.

As to `O=C(Nc1cccc(Cc2ccccc2)c1)Nc1cc(C(F)(F)F)ccc1Oc1ccc(Cl)cc1Cl`, the EC50 in [1] and in assay [2] was 0.3 µg/mL each time.

Consider `O=C(Nc1ccc(Cl)c(Cl)c1)Nc1cc(Cl)ccc1Oc1ccc(Cl)cc1Cl`, for which the EC50 was found to be 2500 nM in [1] and 1900 nM in assay [2]. The Survival entry in [3] was “inactive”.

For `O=C(Nc1ccc2ccccc2c1)Nc1cc(C(F)(F)F)ccc1Oc1ccc(Cl)cc1Cl`, the EC50 in assay [1] amounted to 410 nM; in assay [2], 610 nM. Also, the Survival entry in assay [3] was “inactive”.

Regarding `N#Cc1cc(Cl)ccc1Oc1ccc(Cl)cc1Cl`, the EC50 in [1] is 43000 nM; in assay [2] it was 20000 nM.

Take `O=C(Nc1ccc2c(c1)OCO2)Nc1cc(C(F)(F)F)ccc1Oc1ccc(Cl)cc1Cl`: the EC50 in assay [1] turned out to be 1.2 µg/mL; in [2], 1.1 µg/mL.

Take `O=C(Nc1cc(C(F)(F)F)ccc1Oc1ccc(Cl)cc1Cl)Nc1cc(C(F)(F)F)ccc1N1CCCCC1`: the EC50 in assay [1] turned out to be 2.7 µg/mL; in assay [2], 3.9 µg/mL.

`O=C(Nc1ccc(Cc2ccccc2)cc1)Nc1cc(C(F)(F)F)ccc1Oc1ccc(Cl)cc1Cl`: the EC50 in assay [1] was determined as 0.3 µg/mL; in [2] it was 0.6 µg/mL.

Consider `O=C(O)c1cc(Cl)ccc1Oc1ccc(Cl)cc1Cl`, for which the EC50 in assay [1] and in [2] was above 150000 nM each time.

For `O=C(Nc1ccc(-c2ccccc2)cc1)Nc1cc(C(F)(F)F)ccc1Oc1ccc(Cl)cc1Cl`, the EC50 in assay [1] and in assay [2] was 0.29 µg/mL each time.

On to `O=C(Nc1ccc(F)c(C(F)(F)F)c1)Nc1cc(C(F)(F)F)ccc1Oc1ccc(Cl)cc1Cl`, for which the EC50 in assay [1] was 150 nM; in assay [2], 130 nM.

As for `Nc1ccc(NC(=O)Nc2cc(C(F)(F)F)ccc2Oc2ccc(Cl)cc2Cl)cc1C(F)(F)F`, the EC50 in assay [1] worked out at 3600 nM; in assay [2], 1500 nM.

As a reminder, the IC50 is the midpoint of a concentration-inhibition curve. Consider `N=C(N)c1ccc(NC(=O)Nc2ccc(Oc3ccccc3)cc2)cc1`, for which the EC50 is 460 nM in [4] and 87 nM in assay [5]. In [6], this compound returned an IC50 of 17000 nM.

For `O=C(Nc1cc(C(F)(F)F)ccc1Oc1ccc(Cl)cc1Cl)NC1c2ccccc2-c2ccccc21`, the EC50 in assay [1] came out at 1.4 µg/mL; in assay [2], 0.8 µg/mL.

With `N#Cc1ccc(NC(=O)Nc2cc(C(F)(F)F)ccc2Oc2ccc(Cl)cc2Cl)cc1C(F)(F)F`, the EC50 in assay [1] is 75 nM; in [2], 130 nM.

With `O=C(Nc1ccc(Cc2ccccc2)cc1)Nc1ccc(Oc2ccc(Cl)cc2Cl)c(C(F)(F)F)c1`, the EC50 in [1] is 1.2 µg/mL; in assay [2], 1.3 µg/mL.

Take `Nc1cc(Cl)ccc1Oc1ccc(Cl)cc1Cl`: the EC50 worked out at 55000 nM in assay [1] and 52000 nM in assay [2].

Regarding `NC(=O)Nc1ccc(Oc2ccc(Cl)cc2O)c(Cl)c1`, the EC50 in assay [1] and in assay [2] was 100000 nM in each case.

On to `COc1cc(Cl)ccc1Oc1ccc(Cl)cc1Cl`, for which the EC50 in [1] was determined as 76000 nM; in assay [2], 100000 nM.

Consider `N#Cc1cccc(NC(=O)Nc2cc(C(F)(F)F)ccc2Oc2ccc(Cl)cc2Cl)c1`, for which the EC50 in assay [1] and in assay [2] was 0.14 µg/mL throughout.

Consider `Clc1ccc(Oc2ccc(Cl)cc2NCc2ccccc2)c(Cl)c1`, for which the results for the EC50 in [1] and in assay [2] were 9400 nM and 9700 nM, respectively.

As for `NCc1cc(Cl)ccc1Oc1ccc(Cl)cc1Cl`, the EC50 worked out at 4300 nM in assay [1] and 2300 nM in assay [2].

For the compound `N#Cc1ccc(NC(=O)Nc2cc(C(F)(F)F)ccc2Oc2ccc(Cl)cc2Cl)cc1C#N`, the EC50 is 140 nM in [1] and 81 nM in assay [2].

In the case of `O=C(NCc1ccco1)Nc1cc(C(F)(F)F)ccc1Oc1ccc(Cl)cc1Cl`, the results for the EC50 in [1] and in [2] were 2.6 µg/mL and 2.3 µg/mL, respectively.

In the case of `O=C(Nc1cc(C(F)(F)F)ccc1Oc1ccc(Cl)cc1Cl)Nc1cccc2ccccc12`, the EC50 in [1] stood at 810 nM; in assay [2], 1200 nM. Moreover, the Survival result in assay [3] was “inactive”.

Consider `O=C(Nc1cc(C(F)(F)F)ccc1Oc1ccc(Cl)cc1Cl)Nc1ccccc1-c1ccccc1`, for which the EC50 in [1] came to 0.9 µg/mL; in [2], 0.6 µg/mL.

Regarding `O=C(Nc1ccc(Cl)cc1)Nc1cc(Cl)ccc1Oc1ccc(Cl)cc1Cl`, the EC50 turned out to be 5000 nM in assay [1] and 2000 nM in [2]. Also, the Survival entry in assay [3] is “inactive”.

Regarding `O=C(Nc1cccnc1)Nc1cc(C(F)(F)F)ccc1Oc1ccc(Cl)cc1Cl`, the EC50 in [1] amounted to 1 µg/mL; in assay [2], 0.6 µg/mL.

As for `CS(=O)(=O)Nc1cc(Cl)ccc1Oc1ccc(Cl)cc1Cl`, the EC50 in [1] is 60000 nM; in [2], 38000 nM.

For the compound `O=C(Nc1cc(Cl)cc(Cl)c1)Nc1cc(C(F)(F)F)ccc1Oc1ccc(Cl)cc1Cl`, the values for the EC50 in assay [1] and in assay [2] were 0.046 µg/mL and 0.047 µg/mL, respectively.

For the compound `NC(=O)Nc1cc(Cl)ccc1Oc1ccc(Cl)cc1Cl`, the EC50 in assay [1] and in assay [2] was 18000 nM each time.

A word on the IC90: it is the concentration at which the effect reaches the 90% level. As for `O=C(Nc1ccc(Cl)c(C(F)(F)F)c1)Nc1cc(C(F)(F)F)ccc1Oc1ccc(Cl)cc1Cl`, the IC50 in assay [7] stood at 66 nM; in assay [8] it was 70 nM; in assay [9], 35 nM; in assay [10], 42 nM; in [11], 70 nM. The concentration for an effect of 90% (IC90) in assay [7] was determined as 86 nM; in [8], 88 nM; in assay [9] it was 70 nM; in assay [10], 83 nM; in assay [11] it was 88 nM. Also, the EC50 in assay [1] is 55 nM; in assay [2], 37 nM. Also, the Survival result in assay [12] was “Active”. The Survival result in [13] is “inactive”.

For `COc1ccc(NC(=O)Nc2cc(C(F)(F)F)ccc2Oc2ccc(Cl)cc2Cl)cc1C(F)(F)F`, the EC50 in assay [1] and in assay [2] was 180 nM each time.

With `CN(C)c1ccc(NC(=O)Nc2cc(C(F)(F)F)ccc2Oc2ccc(Cl)cc2Cl)cc1`, the EC50 in [1] stood at 1.8 µg/mL; in assay [2], 1.4 µg/mL.
